According to patent publication US11078262B2, “High viscosity macromolecular compositions for treating ocular conditions” (ALLERGAN, INC., priority 2007, dated 2021):

System: macula edema with central retinal vein occlusion and/or branch retinal vein occlusion
Assay: Treatment of macular edema with intravitreal MAAC composition (ETDRS visual acuity)
Format: in vivo, human
Details: patient; 1 mg intravitreal every 4 months; twelve months after the first injection
Experimental: An obese patient with symptoms of diabetes presents with vision loss due to macula edema with central retinal vein occlusion and/or branch retinal vein occlusion. They receive intravitreal injection of 1 mg of a high viscosity MAAC (polymeric hyaluronate based) solution containing COMPOUND D, such as the Example 13 formulation. Equivalent injections are made every 4 months.

siRNA Z (chain 1 CUGAGUUUAAAAGGCACCCTT; chain 2 TTGACUCAAAUUUUCCGUGGG; chemically modified, pattern not given here; one strand is listed 3' to 5') [COMPOUND D]
improved best corrected visual acuity from baseline (ETDRS chart): fifteen
